Literature values as cited in patent US20240180809A1, “METHOD FOR DYEING KERATIN MATERIAL, INCLUDING THE USE OF AN ORGANIC C1-C6 ALKOXY SILANE, A DYEING COMPOUND, AND A HEAT TREATMENT” (Henkel AG & Co. KGaA, priority 2021, published 2024).

| Compound | solubility in water (25° C.) | further results |
| --- | --- | --- |
| CCN(Cc1cccc(S(=O)(=O)[O-])c1)c1ccc(C(=C2C=CC(=[N+](CC)Cc3cccc(S(=O)(=O)[O-])c3)C=C2)c2ccccc2S(=O)(=O)[O-])cc1.[Na+].[Na+] [Acid Blue 9] |  | water solubility (25° C.): more than 20 wt. % |
| O=S(=O)([O-])c1ccc(N=Nc2c(O)ccc3ccccc23)cc1.[Na+] [Acid Orange 7, sodium salt of 4-[(2-hydroxy-1-naphthyl)azo]benzene sulphonate] | more than 7 g/L |  |
| Nc1cc(S(=O)(=O)[O-])cc2cc(S(=O)(=O)[O-])c(N=Nc3ccccc3)c(O)c12.[Na+].[Na+] [Acid Red 33, disodium salt of 5-amino-4-hydroxy-3-(phenylazo)-naphthalene-2,7-disulfonate] | 2.5 mg/mL |  |
| O=C([O-])c1c(Cl)c(Cl)c(Cl)c(Cl)c1-c1c2cc(Br)c(=O)c(Br)c-2oc2c(Br)c([O-])c(Br)cc12.[Na+].[Na+] [Acid Red 92, disodium salt of 3,4,5,6-tetrachloro-2-(1,4,5,8-tetrabromo-6-hydroxy-3-oxanthene-9-yl) benzoic acid] | greater than 10 g/L |  |
| O=C([O-])C1=NN(c2ccc(S(=O)(=O)[O-])cc2)C(=O)C1N=Nc1ccc(S(=O)(=O)[O-])cc1.[Na+].[Na+].[Na+] (stereo not drawn) [Acid Yellow 23, trisodium salt of 4,5-dihydro-5-oxo-1-(4-sulfophenyl)-4-((4-sulfophenyl)azo)-1H-pyrazole-3-carboxylic acid] |  | solubility in water (in words) (in water at 25° C.): readily soluble |
| mixture of the sodium salts of mono- and sis-sulfonic acids of 2-(2-quinolyl)-1H-indene-1,3(2H)-dione [Acid Yellow 3] | 20 mg/mL |  |
